Data as given in patent publication US7078386B2, “Enhancing agent for nerve growth factor production comprising a compound having a coumarin backbone or a compound having a 2-dimethyl chroman backbone” (Takara Bio, Inc., priority 2001, dated 2006).

What was measured:
[1] = tested on: L-M cells (ATCC CCL-1.2) from murine fibroblasts; experiment: Enhancing activity for NGF production: NGF concentration in culture medium by enzyme immunoassay; type: cell-based; settings: 20 hours culture
Procedure: (2) The enhancing activity for NGF production was determined for the fraction 10 derived from root portions of Angelica keiskei koidz., of which structure was identified in item (1) of Example 1. L-M cells (ATCC CCL-1.2) from murine fibroblasts were suspended in an M199 medium (manufactured by ICN) containing 0.5% bactopeptone (manufactured by Gibco) so as to have a concentration of 1.5×10^5 cells/ml. The suspension was put in a 96 well plate in an amount of 0.1 ml each well, and the cells were aseptically cultured. After culturing the cells for 3 days, the medium was removed therefrom, and exchanged with an M199 medium containing 0.5% bovine serum albumin (manufactured by Sigma). The fraction 10 derived from root portions of Angelica keiskei koidz. was added as the sample thereto, and the cells were cultured for 20 hours. After the termination of the culture, the concentration of the NGF in the culture medium was assayed by an enzyme immunoassay method (NGF Emax Immuno Assay System, manufactured by Promega). The NGF concentration when added was expressed, assuming that the NGF concentration in the cell culture medium with no addition of the sample is 100%, whereby the enhancing activity for NGF production of the sample was evaluated. The experiment was carried out twice, and an average value was taken. As a result, it was clarified that the fraction 10 derived from root portions of Angelica keiskei koidz., namely 3′-O-β-D-glucopyranoyl khellactone, has an enhancing activity for NGF production.

rat = experiment: Single-dose oral administration toxicity in rat; type: in vivo; settings: orally administered, single dose at 1 g/kg of the body weight
Procedure: No toxicity is found when the above-mentioned effective ingredient usable in the present invention is administered in an amount effective for the exhibition of its action. […] Also, incidence of adverse actions is not found.

For `CC(C)=CCc1cc2ccc(=O)oc2cc1O[C@@H]1O[C@H](CO)[C@@H](O)[C@H](O)[C@H]1O` [Fraction 19/20-5, 7-β-D-glucopyranosyloxy-6-prenyl coumarin], which “Amount of NGF Produced” value ([1]; Table 4, sample 1.00 mg/ml, no-sample control = 100% (0.063 ng/ml)) is on record?
Its value is 487.9%.

With `CC1(C)Oc2ccc3ccc(=O)oc3c2C(O)C1OC1OC(CO)C(O)C(O)C1O` [Fraction 10, 3′-O-β-D-glucopyranoyl khellactone] as the molecule, how does the “Amount of NGF Produced” value ([1]; Table 1, sample 2.00 mg/ml, no-sample control = 100% (0.382 ng/ml)) read?
The value was 565.5%.

How did the “Amount of NGF Produced” value ([1]; Table 3, sample 0.0375 mg/ml, no-sample control = 100% (0.027 ng/ml)) turn out when `COc1ccc(C(=O)O)c2c1CC(O)C(C)(C)O2` (stereo not drawn) [Fraction 18-4, 8-carboxyl-3-hydroxy-5-methoxy-2-dimethyl chroman] was run?
The value was 2510.4%.

And the cases of death (rat)?
Its cases of death is “no cases of death”.

With `CC(C)=CCc1c(OC2OC(CO)C(O)C(O)C2O)ccc2ccc(=O)oc12` [Fraction 13-2, 7-O-β-D-glucopyranosyloxy-8-prenyl coumarin] as the molecule, how does the “Amount of NGF Produced” value ([1]; Table 2, sample 1.00 mg/ml, no-sample control = 100% (0.053 ng/ml)) read?
The value was 792.1%.

Which results are given for `C/C=C(/C)C(=O)OC1c2c(ccc3ccc(=O)oc23)OC(C)(C)C1O[C@@H]1O[C@H](CO[C@@H]2O[C@H](CO)[C@@H](O)[C@H](O)[C@H]2O)[C@@H](O)[C@H](O)[C@H]1O` (stereo partly drawn) [Fraction 19/20-6, 4′-O-angeloyl-3′-O-[6-O-(β-D-glucopyranosyl)-β-D-glucopyranosyl]-khellactone]?
Amount of NGF Produced ([1]; Table 5, sample 1.00 mg/ml, no-sample control = 100% (0.063 ng/ml)): 337.7%; cases of death (rat): no cases of death

How did the “Amount of NGF Produced” value ([1]; Table 6, sample 200 μM, no-sample control = 100% (0.668 ng/ml)) turn out when `COc1ccc(C(=O)C=Cc2ccc(O)cc2)c2c1CC(O)C(C)(C)O2` (stereo not drawn) [3-hydroxy-8-[3-(4-hydroxyphenyl)-acryloyl]-5-methoxy-2-dimethyl chroman] was run?
Its value is 457.7%.

What about the cases of death (rat) of the same molecule?
The cases of death was “no cases of death”.
